From US4668685A (priority 1985, dated 1987)
Where a name gives a salt, the structure may show the parent alone.

Key:
[1] = Plasma hydrolysis of nalbuphine prodrug, rat plasma
[2] = Plasma hydrolysis of nalbuphine prodrug, dog plasma
[3] = Plasma hydrolysis of nalbuphine prodrug, human plasma
[4] = Plasma hydrolysis of nalbuphine prodrug, monkey plasma
[5] = Oral nalbuphine bioavailability, human
[6] = Oral nalbuphine bioavailability, monkey; conditions: 4 mg nalbuphine/kg, % dose, two values, 4 mg/kg
[7] = Oral 3-hydroxymorphinan bioavailability (nalbuphine), rat; conditions: plasma, 20 mg/kg
[8] = Oral 3-hydroxymorphinan bioavailability, dog (drug and prodrugs); conditions: 4 mg/kg
[9] = Oral 3-hydroxymorphinan bioavailability, species not printed at the place; conditions: 10 mg naloxone/kg, species not given

SMILES	half-life at 0.28 µM [1] [h]	half-life at 0.28 µM [2] [h]	half-life at 0.28 µM [3] [h]	half-life at 0.28 µM [4] [h]	also measured
Nc1ccccc1C(=O)Oc1ccc2c3c1O[C@H]1[C@@H](O)CC[C@@]4(O)[C@@H](C2)N(CC2CCC2)CC[C@]314 [Example 2, Nalbuphine-3-anthranilate hydrochloride]	1.5	14.6	45	3.3	–
CC(=O)Oc1ccccc1C(=O)Oc1ccc2c3c1O[C@H]1[C@@H](O)CC[C@@]4(O)[C@@H](C2)N(CC2CCC2)CC[C@]314 [Example 1, Nalbuphine-3-(acetylsalicylate)]	0.2	2.8	6.2	0.6	–
Oc1ccc2c3c1O[C@H]1[C@@H](O)CC[C@@]4(O)[C@@H](C2)N(CC2CCC2)CC[C@]314 [nalbuphine, (-)-17-(Cyclobutylmethyl)-4,5α-epoxymorphinan-3,6α,14-triol]	–	–	–	–	Oral nalbuphine bioavailability (F) ([5]; 45 mg tablet or solution, % dose): 14%; bioavailability ([5]; plasma, po, 45 mg): 14%; Oral nalbuphine bioavailability (F) [6]: 1.6%; bioavailability ([6]; plasma, po, Oral nalbuphine bioavailability (F)): 0.9%; bioavailability [7]: 2.7 ± 0.4%; Oral nalbuphine bioavailability (F) ([8]; oral, 4 mg nalbuphine/kg, % dose, mean ± SE): 5.4 ± 0.9%; bioavailability ([8]; plasma, po): 5.4%
C=CCN1CC[C@]23c4c5ccc(O)c4O[C@H]2C(=O)CC[C@@]3(O)[C@H]1C5 [naloxone HCl, (-)-17-Allyl-4,5α-epoxy-3,14-dihydroxymorphinan-6-one]	–	–	–	–	Plasma naloxone concentrations after oral naloxone HCl [9]: close to the assay detection limits and as such were erratic
